Measured values from PMC6615261, “Repurposing Azithromycin and Rifampicin Against Gram-Negative Pathogens by Combination With Peptidomimetics” (Frontiers in Cellular and Infection Microbiology, 2019).

How the values were obtained:
[1] = system: E. coli clinical isolates and reference strains; assay: MIC of fixed-ratio peptidomimetic 1-antibiotic combinations in clinical isolates and reference strains; assay type: cell-based, Escherichia coli; settings: in combination with 0.5–1 μM peptidomimetic 1
Text: (§1) Bacterial strains used in this study comprise MDR clinical isolates of E. coli ST131 (Cerquetti et al., [2010]) and K. pneumoniae ST258 (Jana et al., [2017]), and American type culture collection (ATCC) strains: ATCC 25922 (E. coli), ATCC 13883 (K. pneumoniae), and ATCC 27853 (P. aeruginosa). Additional clinical isolates of E. coli, K. pneumoniae, and P. aeruginosa resistant to β-lactams (including carbapenems and cephalosporins) were provided by Laurent Poirel, Université de Fribourg, Switzerland. The following growth media was routinely used for bacterial culturing: Luria-Burtani (LB), cation-adjusted Mueller-Hinton agar (MHA) and broth (MHB II). All assays were performed in cation-adjusted MHA or MHB II. Antibiotics were purchased from Sigma-Aldrich and the peptidomimetic collection (Table S1) was curated and provided by Henrik Franzyk. […]
(§2) Minimal inhibitory concentrations (MICs) of peptidomimetics, antibiotics and their combinations were determined by broth microdilution according to the Clinical Laboratory Standards Institute performance standards (Clinical and Laboratory Standards Institute, [2013]). […] Potentiation of additional antibiotics by peptidomimetics was determined by using commercial 96-well plates containing varied concentrations of standard antibiotics (COMPAN1F; Trek Diagnostic Systems Inc.). The peptidomimetics were added immediately prior to inoculation with pathogen, and then MICs were determined as above. The MICs of peptidomimetic/antibiotic combinations were determined according to the method above, and the concentration ratios were selected based upon checkerboard results with 2:1 and 1:4 ratio of peptidomimetic with rifampicin or azithromycin, respectively. Minimal bactericidal concentrations (MBCs) were determined by using growth-curve assay plates. […] Growth was recorded at 10 min intervals as optical density (OD) at 600 nm during 24 h. […]

[2] = system: P. aeruginosa clinical isolates and reference strains; assay: as above; assay type: cell-based, Pseudomonas aeruginosa; settings: with 1–8 μM of 1
Text: as §1, §2

[3] = system: K. pneumoniae ST258; settings: checkerboard
Experimental: (§3) The potential synergistic effects in peptidomimetic-antibiotic combinations were assessed by using a two-dimensional checkerboard assay (Garcia, [2010]). Briefly, twofold dilutions of peptide and antibiotic were prepared in MBH II media along the X- and Y-axis, respectively, in 96-well plates. The inoculum was added to the plates, and subsequently these were incubated for 18–20 h. All steps for inoculum preparation and broth microdilution were in accordance with the CLSI guidelines (Clinical and Laboratory Standards Institute, [2013]). The fractional inhibitory concentration index (FICI) was calculated as [MICA(A+B)/MICA(alone)] + [MICB(A+B)/MICB(alone)], where MICA(A+B) represents the MIC of antibiotic (A) in combination with peptidomimetic (B), while MICB(A+B) represents the MIC of peptidomimetic (B) in combination with antibiotic (A). MICA(alone) and MICB(alone) represent the MIC of each compound individually. FICI values of ≤0.5 were interpreted as synergy.

[4] = system: P. aeruginosa ATCC 27853; settings: P. aeruginosa ATCC 27853; checkerboard
Experimental: as §3

[5] = system: E. coli ST131; settings: checkerboard
Experimental: as §3

[6] = system: P. aeruginosa ATTC 27853; settings: P. aeruginosa ATTC 27853; growth-curve assay
Experimental: (§4) Minimal inhibitory concentrations (MICs) of peptidomimetics, antibiotics and their combinations were determined by broth microdilution according to the Clinical Laboratory Standards Institute performance standards (Clinical and Laboratory Standards Institute, [2013]). […] Since rifampicin and azithromycin mainly are used to treat infections with Gram-positive pathogens only CLSI clinical breakpoints were available for such bacteria. […] Potentiation of additional antibiotics by peptidomimetics was determined by using commercial 96-well plates containing varied concentrations of standard antibiotics (COMPAN1F; Trek Diagnostic Systems Inc.). The peptidomimetics were added immediately prior to inoculation with pathogen, and then MICs were determined as above. The MICs of peptidomimetic/antibiotic combinations were determined according to the method above, and the concentration ratios were selected based upon checkerboard results with 2:1 and 1:4 ratio of peptidomimetic with rifampicin or azithromycin, respectively. Minimal bactericidal concentrations (MBCs) were determined by using growth-curve assay plates. MIC plates were prepared as above, and then the plates were incubated at 37°C with continuous shaking. Growth was recorded at 10 min intervals as optical density (OD) at 600 nm during 24 h. At 24 h, for wells without growth, a sample was diluted 10-fold in sterile saline (0.9% sodium chloride) and plated onto MHA, following CLSI guidelines (Clinical and Laboratory Standards Institute, [1999]).

[7] = system: K. pneumoniae ST258; settings: K. pneumoniae ST258; growth-curve assay
Experimental: as §4

[8] = system: E. coli ST131; settings: E. coli ST131; growth-curve assay
Experimental: as §4

[9] = system: E. coli ST131; assay: Potentiation of additional antibiotics (COMPAN1F plates), MIC; assay type: cell-based, Escherichia coli
Summary of the method: (§5)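 MICs of peptidomimetics, antibiotics and their combinations were measured by CLSI broth microdilution. Combination ratios came from checkerboard results: peptidomimetic to rifampicin 2:1, to azithromycin 1:4. For potentiation, peptidomimetic was added to preformed antibiotic-gradient panels just before inoculation.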

[10] = system: K. pneumoniae ST258; assay: as above; assay type: cell-based, Klebsiella pneumoniae
Summary of the method: as §5

Structure (SMILES)	Antibiotic concentration to which most E. coli isolates proved susceptible in combination [1] [µg/mL]	MIC of antibiotic in combination, P. aeruginosa isolates (typical) [2] [µg/mL]	Antibiotic MIC alone [3] [µg/mL]	Antibiotic MIC alone [4] [µg/mL]	Antibiotic MIC alone [5] [µg/mL]	MBC (antibiotic alone) [6] [µg/mL]	MIC (antibiotic alone) [6] [µg/mL]	MBC (antibiotic alone) [7] [µg/mL]	MIC (antibiotic alone) [7] [µg/mL]	MBC (antibiotic alone) [8] [µg/mL]	MIC (antibiotic alone) [8] [µg/mL]	further results
CC[C@H]1OC(=O)[C@H](C)[C@@H](O[C@H]2C[C@@](C)(OC)[C@@H](O)[C@H](C)O2)[C@H](C)[C@@H](O[C@@H]2O[C@H](C)C[C@H](N(C)C)[C@H]2O)[C@](C)(O)C[C@@H](C)CN(C)[C@H](C)[C@@H](O)[C@]1(C)O [Azithromycin, azithromycin]	2 to 4	4 to 8	32	>128	8	>128	>128	>32	>32	>16	8	
CO[C@H]1/C=C/O[C@@]2(C)Oc3c(C)c(O)c4c(O)c(c(/C=N/N5CCN(C)CC5)c(O)c4c3C2=O)NC(=O)/C(C)=C\C=C\[C@H](C)[C@H](O)[C@@H](C)[C@@H](O)[C@@H](C)[C@H](OC(C)=O)[C@@H]1C [Rifampicin, rifampicin]	0.25 to 0.5	0.5	16	32	4	>64	>64	>16	>16	>4	>4	MIC of antibiotic in presence of peptidomimetic 26 ([9]; + 0.25 μM peptidomimetic 26): ≤1 µg/mL; MIC of antibiotic in presence of peptidomimetic 26 ([9]; + 0.25 μM peptidomimetic 26, listed as rifampicin): below 1 μg/mL; MIC of antibiotic in presence of peptidomimetic 1 ([9]; + 0.5 μM peptidomimetic 1): ≤1 µg/mL; MIC of antibiotic in presence of peptidomimetic 1 ([9]; + 0.5 μM peptidomimetic 1, listed as rifampicin): below 1 μg/mL; MIC of antibiotic in presence of peptidomimetic 15 ([9]; + 0.5 μM peptidomimetic 15): ≤1 µg/mL; MIC of antibiotic in presence of peptidomimetic 15 ([9]; + 0.5 μM peptidomimetic 15, listed as rifampicin): below 1 μg/mL; MIC ([9]; Escherichia coli, no peptidomimetic, read-out: MIC of antibiotic alone): > 2 µg/mL; MIC of antibiotic alone ([9]; no peptidomimetic): >2 µg/mL; MIC of antibiotic in presence of peptidomimetic 1 ([10]; + 1 μM peptidomimetic 1): ≤1 µg/mL; MIC of antibiotic in presence of peptidomimetic 1 ([10]; + 1 μM peptidomimetic 1, listed as rifampicin): below 1 μg/mL; MIC of antibiotic in presence of peptidomimetic 15 ([10]; + 1 μM peptidomimetic 15): ≤1 µg/mL; MIC of antibiotic in presence of peptidomimetic 15 ([10]; + 1 μM peptidomimetic 15, listed as rifampicin): below 1 μg/mL; MIC of antibiotic in presence of peptidomimetic 26 ([10]; + 1 μM peptidomimetic 26): ≤1 µg/mL; MIC of antibiotic in presence of peptidomimetic 26 ([10]; + 1 μM peptidomimetic 26, listed as rifampicin): below 1 μg/mL; MIC ([10]; Klebsiella pneumoniae, no peptidomimetic, read-out: MIC of antibiotic alone): > 2 µg/mL; MIC of antibiotic alone ([10]; no peptidomimetic): >2 µg/mL
